Reference: US20090297510A1, “INHIBITION OF CALPAIN REDUCES ALLERGIC INFLAMMATION” (priority 2008, published 2009)

Tests used:
[1] = system: JNK phosphorylation in mast cells; test: Western blot of IgE-dependent kinase phosphorylation in mast cell lysates; format: cell-based, mouse; conditions: BMMC, inhibitor or DMSO 1 hour, then TNP-BSA 10 ng/ml for various times, FIG. 4
Procedure: In particular, mouse bone marrow-derived mast cells (60 million) were sensitized overnight with 90 ml fresh culture medium and 30 ml TIB141-conditioned medium enriched in IgE directed against trinitrophenyl (TNP). Cells were then washed twice with RPMI 1640 and resuspended in 10% FBS-RPMI 1640 at 1 million cells/ml. Five ml of cells were aliquoted for each treatment. Calpain inhibitor 3 (CI3) or DMSO was added and to the sample and incubated at 37° C. in a 5% CO2 incubator for 1 hour. Then, TNP-BSA (10 ng/ml) was added to stimulate mast cells for various times as indicated. After incubation, cells were transferred to a 50 ml tube, and centrifuged at 500×g for 5 min at 4° C. Supernatants were discarded and cell pellets were kept on ice. Cell pellets were lysed with 30 μl ice-cold RIPA lysis buffer for each condition. Lysates were transferred to 1.5 ml tubes, vortexed for 10 seconds at the highest setting, pipetted 20 times, vortexed for 10 seconds again, and incubated for 20 minutes on ice. Subsequently, lysates were centrifuged at 15,000×g for 10 minutes in a cold room. Supernatants were then transferred to new tubes and used for Western blotting with antibodies to phospho-IκB, total IκB, phospho-p38, total p38, phospho-JNK, total JNK, phospho-ERK, total ERK and actin. […]

Balb/c mice = test: FcεRI-mediated passive cutaneous anaphylaxis, Evans blue dye extravasation in ear; format: in vivo; conditions: 0.965 mg/mouse intraperitoneal, 1 h before DNP-BSA challenge i.v.; ears collected 30 min later; control DMSO; FIG. 2
Procedure: In particular, mice were injected locally in the ear tissue with anti-dinitrophenol (DNP) IgE (20 ng/mouse) a day before. Mice in the treatment group received 0.965 mg/mouse of calpain inhibitor III via intraperitoneal injection. Control group received diluent dimethyl sulfoxide (DMSO) only. One hour later, animals were injected with 100 μg of DNP-BSA in 200 μl 0.5% Evan blue dye via tail vein injection. Thirty minutes later, ear tissues were collected. Evan blue dyes were extracted and measure at 620 nm.
To examine the role of calpain in FcεRI-mediated passive cutaneous anaphylaxis in mice, dorsal sides of the ears of Balb/c mice were injected intradermally with 20 ng anti-DNP IgE (both left ears) in a 20 μl volume using a 30-gauge needle. After 24 h mice in the treatment group received 0.965 mg/mouse of calpain inhibitor III via intraperitoneal injection. Control group received diluent dimethyl sulfoxide (DMSO) only. […] For quantitation of Evans blue dye extravasation as a measure of anaphylaxis associated vascular hyperpermeability, 8-mm skin specimens were removed from the ears of mice, minced in 2 ml formamide, and incubated at 80° C. for 2 h in water bath to extract the dye. The absorbance of the extracted dye was read at 620 nm.

## calpain inhibitor III
[1]
  IgE-dependent JNK phosphorylation in mast cells: reduced IgE-dependent JNK phosphorylation in mast cells
Balb/c mice
  IgE-dependent passive cutaneous anaphylaxis (Evans blue dye extravasation, absorbance at 620 nm): reduced IgE-dependent passive cutaneous anaphylaxis
